Assay results: patent US20040267001A1, “Genes encoding baeyer-villiger monooxygenases” (priority 2001, published 2004)

Tests used:
Experiment in all cases: chnB monooxygenase activity assay, NADPH oxidation at 340 nm, purified over-expressed enzyme
Type in all cases: biochemical
[1] = system: Arthrobacter sp. BP2 chnB monooxygenase; conditions: 1.25 mM substrate, pH 7.5; ND = No Activity Detected
Description: (§1) Following amplification, the chnB gene fragments were cloned into pTrcHis-TOPO TA vectors with either an N-terminal tail or C-terminal tail, as provided by the vector sequence (N-terminal tail for Brevibacterium sp. HCU, Rhodococcus sp. phi1, Rhodococcus sp. phi2, and Arthrobacter sp. BP2 monooxygenases; C-terminal tail for Acinetobacter sp. SE19 and Acidovorax sp. CHX monooxygenases). These vectors were transformed into E. coli, with transformants grown in Luria-Bertani broth supplemented with ampicillin (100 ug/ml) and riboflavin (0.1 ug/ml) at 30° C. until the absorbance at 600 nm (A600) reached 0.5. When the A600 was reached, the temperature was shifted to 16° C.
(§2) The encoded monooxygenase sequences were expressed upon addition of IPTG to the culture media, 30 min after the temperature shift to 16° C. The cultures were grown further ovemight (14 hrs) and harvested by centrifugation in a cold centrifuge. The cells were treated with lysozyme (100 mg/ml) for 30 min on ice and sonicated. Following sonication, cell extracts were centrifuged and the supernatant was equilibrated with Ni-NTA resin (Qiagen, Valencia, Calif.) for 1 hr at 4° C. Protein bound resin was washed successively with increasing concentrations of imidazole buffer until the protein of interest was released from the resin. The purified protein was concentrated and the buffer exchanged to remove the imidazole. The protein concentration was adjusted to 1 ug/ml.
(§3) Compounds were selected on the basis of previous observations by van der Werf (J. Biochem. 347:693-701 (2000)) and Miyamoto et al. (Biochimica et Biophysica Acta 1251: 115-124 (1995)) and by searches for the ketone substructure.
(§4) All compounds were obtained from Sigma-Aldrich with only two exceptions. Levoglucosenone was obtained from Toronto Research Chemicals, Inc. and dimethyl-2-piperidone was prepared according to U.S. Pat. No. 6,077,955. For enzyme assays all compounds were dissolved to a concentration of 0.1 M in methanol, with the exceptions of norcamphor (dissolved in ethyl acetate), cyclododecanone, cycltridecanone and cyclopentadecanone (dissolved in propanol), and levoglucosenone (dissolved with acetone).
(§5) The monooxygenase activity of each over-expressed enzyme was assayed spectrophotometrically at 340 nm by monitoring the oxidation of NADPH. Assays were performed in individual quartz cuvettes, with a pathlength of 1 cm. […] An Ultrospec 4000 (Pharmacia Biotech, Cambridge, England) was used to read the absorbance of the samples over a two to ten minute time period and the SWIFT (Pharmacia Biotech) program was used to calculate the slope of the reduction in absorbance over time. For the Brevibactedum sp. […] Monooxygenase activity of each over-expressed enzyme is shown in Table 5, with respect to each ketone substrate. The specific activity values listed are given in umol/min/mg. The notation “ND” refers to “No Activity Detected”.

[2] = system: Rhodococcus sp. phi1 chnB monooxygenase; conditions: 1.25 mM substrate, pH 7.5; ND = No Activity Detected
Description: as §1, §2, §3, §4, §5

[3] = system: Rhodococcus sp. phi2 chnB monooxygenase; conditions: 1.25 mM substrate, pH 7.5; ND = No Activity Detected
Description: as §1, §2, §3, §4, §5

[4] = system: Brevibacterium sp. HCU chnB2 monooxygenase; conditions: 1.25 mM substrate, pH 7.5; rates multiplied by a factor of 3.25 to adjust for decrease in activity due to storage; ND = No Activity Detected
Description: as §1, §2, §3, §4, §5

[5] = system: Brevibacterium sp. HCU chnB1 monooxygenase; conditions: 1.25 mM substrate, pH 7.5; ND = No Activity Detected
Description: as §1, §2, §3, §4, §5

[6] = system: Acidovorax sp. CHX chnB monooxygenase; conditions: 1.25 mM substrate, pH 7.5; ND = No Activity Detected
Description: as §1, §2, §3, §4, §5

[7] = target: T1, Acinetobacter sp. SE19 chnB monooxygenase (Acinetobacter sp., UniProt Q9F7E4); conditions: 1.25 mM substrate, pH 7.5; ND = No Activity Detected
T1 construct: isolated full length BVMO genes from Brevibacterium sp; HCU, Acinetobacter SE19; C-terminal tail provided by the pTrcHis-TOPO vector (C); made in house; host or cells: E. coli
Description: as §1, §2, §3, §4, §5

| Compound | Specific Activity of Monooxygenase Enzymes Against Various Ketone Substrates, sp. BP2 chnB [1] [µmol/min/mg] | Specific Activity of Monooxygenase Enzymes Against Various Ketone Substrates, sp. phi1 chnB [2] [µmol/min/mg] | Specific Activity of Monooxygenase Enzymes Against Various Ketone Substrates, sp. phi2 chnB [3] [µmol/min/mg] | Specific Activity of Monooxygenase Enzymes Against Various Ketone Substrates, sp. HCU chnB2 [4] [µmol/min/mg] | Specific Activity of Monooxygenase Enzymes Against Various Ketone Substrates, sp. HCU chnB1 [5] [µmol/min/mg] | Specific Activity of Monooxygenase Enzymes Against Various Ketone Substrates, sp. CHX chnB [6] [µmol/min/mg] | Specific Activity of Monooxygenase Enzymes Against Various Ketone Substrates, sp. SE19 chnB [7] [µmol/min/mg] |
| --- | --- | --- | --- | --- | --- | --- | --- |
| O=C1CCCCCC1 [Cycloheptanone] | 3.846 | 3.622 | 6.234 | 0.374 | 0.646 | 0.608 | 8.422 |
| CC(=O)/C=C/C1=C(C)CCCC1(C)C [beta-ionone] | 1.485 | 2.707 | 0.544 | 0.374 | 0.109 | 0.544 | 3.347 |
| O=C1Cc2ccccc2N1 [Oxindole] | 4.845 | 3.411 | 4.858 | 0.229 | 2.438 | 0.307 | 7.091 |
| O=C1CC2CC[C@H]1C2 [Norcamphor] | 2.842 | 1.504 | 2.816 | 1.331 | 0.410 | 0.166 | 4.474 |
| O=C1CCCCC1 [Cyclohexanone] | 3.565 | 3.680 | 3.750 | 1.726 | 2.765 | 0.397 | 6.349 |
| CC1CCCCC1=O (stereo not shown) [2-methyl-cyclohexanone] | 4.205 | 4.774 | 5.952 | 1.622 | 2.714 | 0.627 | 9.990 |
| O=C1CCC(=O)CC1 [1,4-cyclohexanedione] | 3.994 | 3.302 | 6.150 | 1.123 | 3.405 | 0.794 | 8.346 |
